Measured values as given in patent US20240130966A1 (Aerovate Therapeutics, Inc., priority 2021, published 2024).
Like-named read-outs stand apart in the source and are kept apart here.

Method: Generator impactor profiles were prepared for ceramic milled powders both before and after conditioning with high humidity for a short time (80-90% RH at room temperature for ˜3 hours).
Again, the exposure consisted of 80%-90% relative humidity at room temperature for about 3 hours.

[1] = Post-exposure, 80%-90% relative humidity at room temperature for about 3 hours (N=9)

FPF of emitted dose (%) [1]: 66.8 +/− 4.3% | FPF of fill (%) [1]: 48.1 +/− 3.0% | FPF of emitted dose (%) (Pre-exposure to humidity (N=7)): 52.3 +/− 6.3% | FPF of fill (%) (Pre-exposure to humidity (N=7)): 36.2 +/− 3.5% | Increase in fine particle dose (stage 3-MOC levels) after humidity conditioning (ceramic milled powders, 80-90% RH at room temperature for ~3 hours, FIG. 1): 10-20 % of the capsule fill dose | Delivery performance after desorption compared to post-humidification powders (humidity for 12+ hours, then desorbed at <5% RH for about 24 hours): no change in delivery performance
Substance: Imatinib
